One experiment deals with HT29. Nature of the experiment: Colony formation assay (CFA), HT29. In kind it is cell-based. Particulars: grown 7-10 days. Here is the method:
(§1) Cell Viability Determination: For colony formation assay, cells were plated in 6 well plates at 2000 cells per well. Twenty-four hours after plating, cells were treated with compound. Colonies were allowed to develop for 7-10 days, at which they were stained with modified Giemsa stain (Sigma). Stained colonies were then counted to determine IC50.
(§2) Compounds 5 [as shown in Example 1], 3 [as shown in Example 1], 7-1[as shown in Example 1], 10-2 [as shown in Example 3], 10-1 [as shown in Example 2], and 13-1 [as shown in Example 4] were tested for their ability to inhibit cell growth and promote cell death using the colony formation assay (CFA). Cells were treated for either 6 or twenty-four hours with the indicated compounds, and then allowed to grow for an additional 7-10 days. Cells were then stained, and colonies counted to determine IC-50 values.
(§3) Similarly, Compound 10-2 [as shown in Example 3] was tested against a wide range of cancer cell lines.

The next experiment concerns MDA-MB-231. The experiment is described as follows: Colony formation assay (CFA), MDA-MB-231. In kind it is cell-based. Particulars: grown 7-10 days. Here is the method:
as §1, §2

The next experiment concerns FaDu. The experiment is described as follows: Colony formation assay (CFA), FaDu. In kind it is cell-based. As to conditions: Homo sapiens, treated 6 or 24 hours, grown 7-10 days. Here is the method:
as §1, §2, §3

In experiment [1] the test system is Hoechst side population of SW480 cells. The experiment is described as follows: Colony formation assay, Hoechst side population vs non-side population. In kind it is cell-based. As to conditions: colony formation assays, FIG. 4B. Here is the method:
as §1
Hoechst Side Population: SW480 cells were removed from the culture dish with trypsin and ethylenediaminetetraacetic acid (“EDTA”), pelleted by centrifugation, washed with phosphate-buffered saline (PBS), and resuspended at 37° C. in Dulbecco's modified Eagle's medium (DMEM) containing 2% FBS and 1 mM 4-(2-hydroxyethyl)-1-piperazineethanesulfonic acid (HEPES). The cells were then labeled with Hoechst 33342 (Invitrogen) at a concentration of 5 μg/mL. The labeled cells were incubated for 120 minutes at 37° C., either alone or with 50 μM verapamil (Sigma-Aldrich, St. Louis). After staining, the cells were suspended in Hanks' balanced saline solution (HBSS; Invitrogen) containing 2% FBS and 1 mM HEPES, passed a through 40 μm mesh filter, and maintained at 4° C. until flow cytometry analysis. The Hoechst dye was excited at 350 nm, and its fluorescence was measured at two wavelengths using a 450 DF10 (450/20 nm band-pass filter) and a 675LP (675 nm long-pass edge filter) optical filter. […]

In another experiment the test system is SW480 cells. Nature of the experiment: Hoechst side population staining of SW480 cells. The format is cell-based. Particulars: treated before Hoechst staining (50 μM), FIG. 4A. Here is the method: Hoechst Side Population: SW480 cells were removed from the culture dish with trypsin and ethylenediaminetetraacetic acid (“EDTA”), pelleted by centrifugation, washed with phosphate-buffered saline (PBS), and resuspended at 37° C. in Dulbecco's modified Eagle's medium (DMEM) containing 2% FBS and 1 mM 4-(2-hydroxyethyl)-1-piperazineethanesulfonic acid (HEPES). The cells were then labeled with Hoechst 33342 (Invitrogen) at a concentration of 5 μg/mL. The labeled cells were incubated for 120 minutes at 37° C., either alone or with 50 μM verapamil (Sigma-Aldrich, St. Louis). After staining, the cells were suspended in Hanks' balanced saline solution (HBSS; Invitrogen) containing 2% FBS and 1 mM HEPES, passed a through 40 μm mesh filter, and maintained at 4° C. until flow cytometry analysis. The Hoechst dye was excited at 350 nm, and its fluorescence was measured at two wavelengths using a 450 DF10 (450/20 nm band-pass filter) and a 675LP (675 nm long-pass edge filter) optical filter. The gating on forward and side scatter was not stringent, and only debris was excluded (Goodell et al., 1996 J Exp Med 183, 1797-806).
SW480 cells were stained with Hoechst. The side population (shown in FIG. 4A, upper left panel gated area) was sorted out to enrich the cancer stem cells. […]

The next experiment relates to FaDu xenograft tumors. The experiment is described as follows: Spherogenesis of cells from treated FaDu xenograft tumors. Particulars: daily po for four days; carboplatin 30 mg/kg, 10-2 100 mg/kg; spheres after 10-14 days. In kind it is in vivo, mice. The protocol: In addition, we also tested if compound 10-2 can target cancer stem cells in vivo. Six-week-old female athymic nu/nu mice were obtained from Charles River Labs (Wilmington, Mass.). Mice were injected subcutaneously on the flank with 6×10^6 FaDu cancer cells in 0.2 mL of serum-free DMEM. After xenografts reached ˜200 mm^3 in size, animals bearing FaDu xenograft tumors were administered daily with either vehicle, carboplatin (30 mg/kg), or compound 10-2 (100 mg/kg) via po for four days before sacrifice. Tumors were then collected for FaDu cells. Single cell suspensions were obtained following animal sacrifice, and sterile removal of tumors. Briefly, tumors were minced with sterile scalpels into 0.1 mm^3 pieces before being digested in 1 mg/mL collagenase/HBSS for 15-30 minutes with constant agitation. Following passage through a 40 μm mesh filter, RBCs, dead cells, and cell debris were removed by layering the cell suspension onto 1 mL of Histopaque and collecting interface layer after centrifugation at 1440×g for 30 minutes. Live cells were then counted and used to measure their ability to form spheres. […] Fresh media was added every three days, and sphere formation was determined after 10-14 days in culture. Spheres with >50 cells were scored. […]

Setting [2] is: Homo sapiens, HT-29, treated 6 or 24 hours.
Setting [3] is: Homo sapiens, MDA-MB-231, treated 6 or 24 hours.

The structures appear in SMILES notation. pIC50: −log10 of the molar value.

Regarding `Cc1nc(-c2ccc3c(c2)CC(=O)N3)cs1` [Compound 3], the pIC50 in the experiment with HT29 (treated 6 or 24 hours) and in the experiment on MDA-MB-231 (treated 6 or 24 hours) was 3.52 to 4.30 in each case. With `Cc1nc(-c2ccc3c(c2)/C(=C/c2[nH]c(C)c(C(=O)N4CCN(C)CC4)c2C)C(=O)N3)cs1` [Compound 7-1], the pIC50 in the experiment on HT29 (setting [2]) and with MDA-MB-231 (setting [3]) was 5.00 to 5.22 throughout.

Take `Cc1[nH]c(/C=C2\C(=O)Nc3ccc(-c4csc(-c5ccccc5)n4)cc32)c(C)c1C(=O)N1CCN(C)CC1` [Compound 10-1]: the pIC50 (commonly −log10 of the IC50, conventionally taken in molar units) is 5.52 to 5.82 in the experiment on HT29 (setting [2]) and 5.82 to 6.10 in the experiment with MDA-MB-231 (setting [3]). For `Cc1[nH]c(/C=C2\C(=O)Nc3ccc(-c4csc(-c5cccnc5)n4)cc32)c(C)c1C(=O)N1CCN(C)CC1` [Compound 13-1], in that order: 6.10 to 6.40 and 6.60 to 7.00. The molecule `CCN(CC)CCNC(C)c1c(C)[nH]c(/C=C2\C(=O)Nc3ccc(-c4csc(-c5cccnc5)n4)cc32)c1C` (stereo not drawn) [Compound 13-2] gave a negative-log IC50 (pIC50) with FaDu of 6.40 to 6.52. For `COc1cccc2c1C(=O)c1c(O)c3c(c(O)c1C2=O)C[C@@](O)(C(=O)CO)C[C@@H]3O[C@H]1C[C@H](N)[C@H](O)[C@H](C)O1` [Doxorubicin], the “side population relative to non-side population” value in experiment [1] was “more resistant”. Consider `COc1ccc(CCN(C)CCCC(C#N)(c2ccc(OC)c(OC)c2)C(C)C)cc1OC` (stereo not drawn) [Verapamil], for which the “effect on Hoechst side population” value in the experiment with SW480 cells is “loss of the side population”.

For the molecule `N.N.O=C([O-])C1(C(=O)[O-])CCC1.[Pt+2]` [carboplatin], in the experiment on FaDu xenograft tumors, the “spherogenesis of tumor cells after in vivo treatment” value is recorded as “unchanged spherogenesis”.

For the origin of these results see patent US8299106B2, “Compositions of kinase inhibitors and their use for treatment of cancer and other diseases related to kinases” (Boston Biomedical, Inc., priority 2007, dated 2012).
